# Reference: ChEMBL document CHEMBL2384969, “Discovery and Optimization of Potent GPR40 Full Agonists Containing Tricyclic Spirocycles” (ACS Med Chem Lett, 2013)
# pEC50: −log10 of the molar value. The source made the active and inactive calls. No cut-off for these calls is given here.
# Experiments:
# [1] = molecular target: T1, Free fatty acid receptor 1 (Homo sapiens, UniProt O14842); assay: Agonist activity at human FFA1 receptor expressed in CHO cell membranes after 4 hrs by aequorin bioluminescence assay relative to AM-1638; assay type: cell-based
# T1 sequence (O14842 whole entry): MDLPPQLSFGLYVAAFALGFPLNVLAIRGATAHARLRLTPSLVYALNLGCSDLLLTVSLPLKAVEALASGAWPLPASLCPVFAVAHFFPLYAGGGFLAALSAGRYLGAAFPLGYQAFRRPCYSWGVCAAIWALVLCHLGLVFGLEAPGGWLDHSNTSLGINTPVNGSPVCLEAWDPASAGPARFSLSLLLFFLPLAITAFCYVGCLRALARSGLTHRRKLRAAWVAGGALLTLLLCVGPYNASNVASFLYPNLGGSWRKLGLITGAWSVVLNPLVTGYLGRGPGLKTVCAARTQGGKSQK
# [2] = molecular target: T1, Free fatty acid receptor 1; assay: Agonist activity at human FFA1 receptor expressed in CHO cell membranes after 4 hrs by aequorin bioluminescence assay; assay type: cell-based
# [3] = Oral bioavailability in cynomolgus monkey at 2 mg/kg; assay type: ADME, organism-based, Macaca fascicularis; conditions: in vivo
# [4] = Oral bioavailability in Sprague-Dawley rat at 2 mg/kg; assay type: ADME, organism-based; conditions: in vivo
# [5] = Half life in cynomolgus monkey at 0.5 mg/kg, iv; assay type: ADME, organism-based, Macaca fascicularis; set-up: dose 0.5 mg/kg, route intravenous; conditions: in vivo
# [6] = Half life in Sprague-Dawley rat at 0.5 mg/kg, iv; assay type: ADME, organism-based; set-up: dose 0.5 mg/kg, route intravenous; conditions: in vivo
# [7] = Volume of distribution at steady state in cynomolgus monkey at 0.5 mg/kg, iv; assay type: ADME, organism-based, Macaca fascicularis; set-up: dose 0.5 mg/kg, route intravenous; conditions: in vivo, read-out: Vdss
# [8] = Volume of distribution at steady state in Sprague-Dawley rat at 0.5 mg/kg, iv; assay type: ADME, organism-based; set-up: dose 0.5 mg/kg, route intravenous; conditions: in vivo, read-out: Vdss
# [9] = Clearance in cynomolgus monkey at 0.5 mg/kg, iv; assay type: ADME, organism-based, Macaca fascicularis; set-up: dose 0.5 mg/kg, route intravenous; conditions: in vivo
# [10] = Clearance in Sprague-Dawley rat at 0.5 mg/kg, iv; assay type: ADME, organism-based; set-up: dose 0.5 mg/kg, route intravenous; conditions: in vivo
# [11] = molecular target: Kappa-type opioid receptor (Rattus norvegicus) (UniProt P34975); assay: Inhibition of rat kappa opioid receptor at 10 uM relative to control
# Chain of Kappa-type opioid receptor (Rattus norvegicus) (P34975 whole entry): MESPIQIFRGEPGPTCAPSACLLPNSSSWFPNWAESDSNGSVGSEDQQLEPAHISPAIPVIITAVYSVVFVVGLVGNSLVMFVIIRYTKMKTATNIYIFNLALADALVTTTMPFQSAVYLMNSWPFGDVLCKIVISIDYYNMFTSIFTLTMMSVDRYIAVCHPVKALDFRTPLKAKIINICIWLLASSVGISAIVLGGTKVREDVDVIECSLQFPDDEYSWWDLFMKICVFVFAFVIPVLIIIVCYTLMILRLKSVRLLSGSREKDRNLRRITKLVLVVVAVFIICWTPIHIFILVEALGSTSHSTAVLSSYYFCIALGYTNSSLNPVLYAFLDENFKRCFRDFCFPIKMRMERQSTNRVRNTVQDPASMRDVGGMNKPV
# [12] = molecular target: D(1A) dopamine receptor (Homo sapiens) (UniProt P21728); assay: Inhibition of human dopamine D1 receptor at 10 uM relative to control
# Chain of D(1A) dopamine receptor (Homo sapiens) (P21728 whole entry): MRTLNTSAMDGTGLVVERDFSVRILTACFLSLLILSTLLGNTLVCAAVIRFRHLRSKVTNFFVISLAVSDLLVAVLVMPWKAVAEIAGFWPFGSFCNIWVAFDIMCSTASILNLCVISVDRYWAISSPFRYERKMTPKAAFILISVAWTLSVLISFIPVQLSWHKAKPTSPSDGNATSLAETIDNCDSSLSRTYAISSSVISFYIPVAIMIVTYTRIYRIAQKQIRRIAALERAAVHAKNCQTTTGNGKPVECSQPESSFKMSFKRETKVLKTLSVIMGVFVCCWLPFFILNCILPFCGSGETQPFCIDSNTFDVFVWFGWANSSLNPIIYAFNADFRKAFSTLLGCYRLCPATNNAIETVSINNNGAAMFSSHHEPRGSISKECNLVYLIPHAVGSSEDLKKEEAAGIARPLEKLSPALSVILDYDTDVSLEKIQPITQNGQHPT
# [13] = molecular target: Histamine H4 receptor (Homo sapiens) (UniProt Q9H3N8); assay: Inhibition of human histamine H4 receptor at 10 uM relative to control
# Chain of Histamine H4 receptor (Homo sapiens) (Q9H3N8 whole entry): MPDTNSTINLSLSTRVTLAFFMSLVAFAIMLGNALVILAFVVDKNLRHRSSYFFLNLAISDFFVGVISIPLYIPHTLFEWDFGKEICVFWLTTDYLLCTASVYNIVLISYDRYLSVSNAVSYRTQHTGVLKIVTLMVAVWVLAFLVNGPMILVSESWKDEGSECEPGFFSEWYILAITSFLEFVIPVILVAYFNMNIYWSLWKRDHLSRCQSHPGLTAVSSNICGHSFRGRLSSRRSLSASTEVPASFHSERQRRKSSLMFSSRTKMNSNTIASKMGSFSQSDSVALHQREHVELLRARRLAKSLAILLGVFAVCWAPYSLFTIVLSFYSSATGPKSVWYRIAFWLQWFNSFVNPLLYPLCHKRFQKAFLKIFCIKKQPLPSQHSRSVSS
# [14] = molecular target: T2, Gastrin/cholecystokinin type B receptor (Homo sapiens) (UniProt P32239); assay: Inhibition of human CCK2 receptor at 10 uM relative to control
# T2 sequence (whole entry): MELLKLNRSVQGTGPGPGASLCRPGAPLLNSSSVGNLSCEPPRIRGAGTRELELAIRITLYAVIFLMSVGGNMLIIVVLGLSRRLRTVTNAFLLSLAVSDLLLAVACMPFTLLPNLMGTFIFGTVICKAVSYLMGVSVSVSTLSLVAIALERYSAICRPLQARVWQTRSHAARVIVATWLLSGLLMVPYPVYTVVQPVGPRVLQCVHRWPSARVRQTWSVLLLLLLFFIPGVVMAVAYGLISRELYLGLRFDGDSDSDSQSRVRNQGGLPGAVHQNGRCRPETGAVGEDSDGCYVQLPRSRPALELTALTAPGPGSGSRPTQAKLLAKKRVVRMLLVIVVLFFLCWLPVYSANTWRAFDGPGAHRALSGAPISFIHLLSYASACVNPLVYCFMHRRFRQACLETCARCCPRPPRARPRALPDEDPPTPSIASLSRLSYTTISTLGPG
# [15] = molecular target: Sodium-dependent noradrenaline transporter (Homo sapiens) (UniProt P23975); assay: Inhibition of human norepinephrine transporter at 10 uM relative to control
# Chain of Sodium-dependent noradrenaline transporter (Homo sapiens) (P23975 whole entry): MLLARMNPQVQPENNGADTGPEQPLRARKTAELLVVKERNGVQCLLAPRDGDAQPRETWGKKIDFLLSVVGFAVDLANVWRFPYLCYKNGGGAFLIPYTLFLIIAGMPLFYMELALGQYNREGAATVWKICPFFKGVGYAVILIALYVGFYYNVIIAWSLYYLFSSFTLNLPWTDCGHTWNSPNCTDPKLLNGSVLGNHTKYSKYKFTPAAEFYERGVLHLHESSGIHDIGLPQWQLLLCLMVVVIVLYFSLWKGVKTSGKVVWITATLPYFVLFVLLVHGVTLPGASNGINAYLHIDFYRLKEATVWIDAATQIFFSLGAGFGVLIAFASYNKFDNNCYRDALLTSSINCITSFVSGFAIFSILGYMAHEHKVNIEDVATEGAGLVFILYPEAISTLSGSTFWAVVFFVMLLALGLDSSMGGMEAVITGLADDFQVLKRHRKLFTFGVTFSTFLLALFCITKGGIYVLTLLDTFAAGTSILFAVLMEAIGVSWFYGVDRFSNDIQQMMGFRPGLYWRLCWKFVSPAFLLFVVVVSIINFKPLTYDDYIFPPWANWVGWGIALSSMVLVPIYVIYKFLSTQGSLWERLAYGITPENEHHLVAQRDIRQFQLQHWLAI
# [16] = molecular target: T3, Thyrotropin-releasing hormone receptor (Homo sapiens) (UniProt P34981); assay: Inhibition of human TRH1 receptor at 10 uM relative to control
# T3 sequence (whole entry): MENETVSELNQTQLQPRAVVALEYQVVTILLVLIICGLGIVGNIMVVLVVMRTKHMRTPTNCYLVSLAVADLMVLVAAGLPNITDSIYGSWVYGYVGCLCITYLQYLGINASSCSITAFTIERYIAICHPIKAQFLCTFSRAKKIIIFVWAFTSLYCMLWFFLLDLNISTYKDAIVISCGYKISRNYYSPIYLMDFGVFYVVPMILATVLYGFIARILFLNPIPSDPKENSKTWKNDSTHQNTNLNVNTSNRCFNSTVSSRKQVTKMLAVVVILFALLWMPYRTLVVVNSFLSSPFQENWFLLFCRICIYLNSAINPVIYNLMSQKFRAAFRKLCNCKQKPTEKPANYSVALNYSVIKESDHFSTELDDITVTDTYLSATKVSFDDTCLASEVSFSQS
# [17] = molecular target: T4, Adenosine receptor A1 (Homo sapiens) (UniProt P30542); assay: Inhibition of human adenosine A1 receptor at 10 uM relative to control
# T4 sequence (whole entry): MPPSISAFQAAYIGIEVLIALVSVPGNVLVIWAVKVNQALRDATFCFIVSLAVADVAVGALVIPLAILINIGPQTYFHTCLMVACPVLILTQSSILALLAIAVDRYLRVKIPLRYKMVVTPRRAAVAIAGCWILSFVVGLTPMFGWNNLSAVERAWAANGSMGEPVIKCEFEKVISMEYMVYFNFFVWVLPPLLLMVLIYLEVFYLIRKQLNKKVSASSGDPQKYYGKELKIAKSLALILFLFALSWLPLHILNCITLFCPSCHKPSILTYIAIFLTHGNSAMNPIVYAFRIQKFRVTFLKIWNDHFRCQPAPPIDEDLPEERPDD
# [18] = molecular target: T1, Free fatty acid receptor 1; assay: Positive cooperativite binding to human FFA1 receptor expressed in CHO cell membranes assessed as enhancement of specific binding of [3H]AMG 837 by reciprocal competition assay
# Mus musculus [19] = assay: Antidiabetic activity in high-fat diet fed streptozotocin-induced C57BL/6J mouse assessed as increase in insulin secretion at 30 mg/kg, po by oral glucose tolerance test; assay type: functional, organism-based; set-up: dose 30 mg/kg
# Mus musculus [20] = assay: Antidiabetic activity in high-fat diet fed streptozotocin-induced C57BL/6J mouse assessed as improvement in glucose AUC at 30 mg/kg, po by oral glucose tolerance test relative to control; assay type: functional
# Pancreatic islet [21] = assay: Potentiation of glucose-stimulated insulin secretion in human pancreatic islets at 0.01 uM to 10 uM; assay type: functional
# Pancreatic islet [22] = assay: Potentiation of glucose-stimulated insulin secretion in mouse pancreatic islets at 0.01 uM to 10 uM; assay type: functional
# [23] = molecular target: Free fatty acid receptor 1 (Rattus norvegicus) (UniProt Q8K3T4); assay: Agonist activity at FFA1 receptor in Sprague-Dawley rat fetal intestinal cells assessed as stimulation of GIP secretion after 1 hr by ELISA relative to AM-1638
# Chain of Free fatty acid receptor 1 (Rattus norvegicus) (Q8K3T4 whole entry): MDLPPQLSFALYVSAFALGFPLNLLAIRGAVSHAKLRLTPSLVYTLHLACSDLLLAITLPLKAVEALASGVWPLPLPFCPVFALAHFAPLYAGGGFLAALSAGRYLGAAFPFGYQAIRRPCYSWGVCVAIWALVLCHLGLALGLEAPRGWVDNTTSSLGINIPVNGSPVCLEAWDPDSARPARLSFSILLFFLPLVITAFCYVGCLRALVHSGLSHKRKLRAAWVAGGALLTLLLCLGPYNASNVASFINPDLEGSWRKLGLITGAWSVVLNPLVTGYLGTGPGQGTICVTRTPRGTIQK
# [24] = molecular target: Free fatty acid receptor 1 (Rattus norvegicus) (UniProt Q8K3T4); assay: Agonist activity at FFA1 receptor in Sprague-Dawley rat fetal intestinal cells assessed as stimulation of GIP secretion after 1 hr by ELISA
# [25] = molecular target: Free fatty acid receptor 1 (Rattus norvegicus) (UniProt Q8K3T4); assay: Agonist activity at FFA1 receptor in Sprague-Dawley rat fetal intestinal cells assessed as stimulation of GLP1 secretion after 1 hr by ELISA relative to AM-1638
# [26] = molecular target: Free fatty acid receptor 1 (Rattus norvegicus) (UniProt Q8K3T4); assay: Agonist activity at FFA1 receptor in Sprague-Dawley rat fetal intestinal cells assessed as stimulation of GLP1 secretion after 1 hr by ELISA
# Mus musculus [27] = assay: Antidiabetic activity in high-fat diet fed streptozotocin-induced C57BL/6J mouse at 60 mg/kg, po by oral glucose tolerance test; assay type: functional, organism-based; set-up: dose 60 mg/kg
structure (smiles),measurement,setting,value
COc1ccc(F)c(-c2ccc(COc3ccc4c(c3)[C@]3(CC4)C[C@H]3C(=O)O)cc2[C@H]2CCCC2(C)C)c1,Emax,[1],104%
same,pEC50,[2],6.67
COc1ccc(F)c(-c2ccc(COc3ccc4c(c3)[C@@H]3[C@H](C4)[C@@H]3C(=O)O)cc2C2=CCCC2(C)C)c1,Emax,[1],10%
same,pEC50,[2],< 4.52
COc1cc(-c2ccc(COc3ccc4c(c3F)[C@]3(CCC4)C[C@H]3C(=O)O)cc2[C@@H]2CCCC2(C)C)c(F)cn1,bioavailability,[3],44%
same,bioavailability,[4],61%
same,half-life,[5],3.7 h
same,half-life,[6],4.1 h
same,Vd,[7],0.4 L/kg
same,Vd,[8],0.8 L/kg
same,clearance,[9],1.83 mL/min/kg
same,clearance,[10],2.83 mL/min/kg
same,inhibition,[11],< 70%
same,inhibition,[12],< 70%
same,inhibition,[13],< 70%
same,inhibition,[14],< 70%
same,inhibition,[15],< 70%
same,inhibition,[16],< 70%
same,inhibition,[17],< 70%
same,Emax,[1],90%
same,pEC50,[2],6.98
COc1ccc(F)c(-c2ccc(COc3ccc4c(c3)[C@@]3(CC4)C[C@@H]3C(=O)O)cc2C2=CCCC2(C)C)c1,Emax,[1],12%
same,pEC50,[2],< 4.52
COc1ccc(F)c(-c2ccc(COc3ccc4c(c3)[C@H]3[C@@H](C4)[C@H]3C(=O)O)cc2C2=CCCC2(C)C)c1,Emax,[1],17%
same,pEC50,[2],< 4.52
COc1ccc(F)c(-c2ccc(COc3ccc4c(c3)[C@]3(CCC4)CC[C@H]3C(=O)O)cc2C2=CCCC2(C)C)c1,Emax,[1],83%
same,pEC50,[2],6.46
COc1ccc(F)c(-c2ccc(COc3ccc4c(c3)[C@]3(CC4)C[C@H]3C(=O)O)cc2[C@@H]2CCCC2(C)C)c1,Activity,[18],Active
same,bioavailability,[3],69%
same,bioavailability,[4],28%
same,half-life,[5],2.2 h
same,half-life,[6],4.2 h
same,Vd,[7],1.4 L/kg
same,Vd,[8],0.7 L/kg
same,clearance,[9],14 mL/min/kg
same,clearance,[10],4.17 mL/min/kg
same,inhibition,[11],< 70%
same,inhibition,[12],< 70%
same,inhibition,[13],< 70%
same,inhibition,[14],< 70%
same,inhibition,[15],< 70%
same,inhibition,[16],< 70%
same,inhibition,[17],< 70%
same,Emax,[1],101%
same,pEC50,[2],7.09
same,Activity,Mus musculus [19],Active
same,Activity,Mus musculus [20],48%
same,Activity,Pancreatic islet [21],Active
same,Activity,Pancreatic islet [22],Active
same,fold change (FC),[23],2
same,Activity,[24],Active
same,fold change (FC),[25],2
same,Activity,[26],Active
COc1ccc(F)c(-c2ccc(COc3ccc4c(c3)[C@]3(CCC4)C[C@H]3C(=O)O)cc2[C@@H]2CCCC2(C)C)c1,Emax,[1],101%
same,pEC50,[2],7.04
COc1ccc(F)c(-c2ccc(COc3ccc4c(c3)[C@]3(CC4)C[C@@H]3C(=O)O)cc2C2=CCCC2(C)C)c1,Emax,[1],5%
same,pEC50,[2],< 4.52
COc1ccc(F)c(-c2ccc(COc3ccc4c(c3)[C@@H]3[C@H](C4)[C@H]3C(=O)O)cc2C2=CCCC2(C)C)c1,Emax,[1],15%
same,pEC50,[2],< 4.52
COc1ccc(F)c(-c2ccc(COc3ccc4c(c3)[C@H]3[C@@H](C4)[C@@H]3C(=O)O)cc2C2=CCCC2(C)C)c1,Emax,[1],99%
same,pEC50,[2],5.85
COc1ccc(F)c(-c2ccc(COc3ccc4c(c3)[C@@]3(CC4)C[C@H]3C(=O)O)cc2C2=CCCC2(C)C)c1,Emax,[1],27%
same,pEC50,[2],5.42
COc1ccc(F)c(-c2ccc(COc3ccc4c(c3)[C@]3(CC4)CC[C@H]3C(=O)O)cc2C2=CCCC2(C)C)c1,Emax,[1],92%
same,pEC50,[2],6.28
COc1ccc(F)c(-c2ccc(COc3ccc4c(c3F)[C@]3(CCC4)C[C@H]3C(=O)O)cc2[C@@H]2CCCC2(C)C)c1,Emax,[1],90%
same,pEC50,[2],7.01
COc1ccc(F)c(-c2ccc(COc3ccc4c(c3)[C@]3(CC4)C[C@H]3C(=O)O)cc2C2=CCCC2(C)C)c1,Emax,[1],100%
same,pEC50,[2],6.74
COc1ccc(F)c(-c2ccc(COc3cccc([C@@H](CC(=O)O)C4CC4)c3)cc2C2=CCCC2(C)C)c1,bioavailability,[4],15%
same,Vd,[7],2 L/kg
same,Vd,[8],1.1 L/kg
same,inhibition,[11],> 70%
same,inhibition,[12],> 70%
same,inhibition,[13],> 70%
same,inhibition,[14],> 70%
same,inhibition,[15],> 70%
same,inhibition,[16],> 70%
same,inhibition,[17],> 70%
same,Activity,Mus musculus [27],Active
COc1ccc(F)c(-c2ccc(COc3ccc4c(c3)[C@]3(CCC4)C[C@H]3C(=O)O)cc2C2=CCCC2(C)C)c1,Emax,[1],98%
same,pEC50,[2],6.82
